Assay results taken from patent publication US20200181132A1, “QUINOXALINE AND PYRIDOPYRAZINE DERIVATIVES AS PI3K-BETA INHIBITORS” (JANSSEN PHARMACEUTICA NV, priority 2017, published 2020).
Like-named read-outs stand apart in the source and are kept apart here.

Key:
[1] = tested on: phosphorylation of Akt at Thr308 in PC-3 cells; test: Cellular assay: phospho-Akt (Thr308) MSD ELISA in PC-3 cells; format: cell-based; details: 60 min incubation with compound, read-out: IC50 pAkt_Thr308
Procedure: (§1) Cellular activity of PI3Kβ inhibitors was determined by quantifying the phosphorylation of Akt in PC-3 cells. Akt phosphorylated at Ser473 and Thr308 were measured using an enzyme-linked immunosorbent assay (ELISA; Meso Scale Discovery (MSD), Gaithersburg, Md.) and specific primary antibodies from MSD.
(§2) On day 1, PC3 cells (ATCC # […]) were seeded into PerkinElmer MW96 plates at 25.000 cells per well, in 75 μl complete culture medium (DMEM high glucose, AQmedia™, D0819, Sigma-Aldrich) containing 10% heat inactivated FCS and incubated at 37° C., 5% CO2 during 24 hours. On day 2, compound or DMSO (0.3%) was added and cells were further incubated for 60 min at 37° C., 5% CO2 in a total volume of 100 μl of medium.
(§3) The phosphoprotein assay was executed according to vendor instructions in the Phospho-Akt (Ser473) Assay Whole Cell Lysate Kit (MSD # K15100D-3) and the Phospho-Akt (Thr308) Assay Whole Cell Lysate Kit (MSD # K151DYD-3) using the lysis, blocking and wash buffer provided.
(§4) Briefly, at the end of the cell treatment period, media were removed by aspiration and adherent cells were lysed in 50 μl ice-cold lysis buffer. MSD plates are supplied pre-coated with capture antibodies for Phospho-Akt (Ser473 and Thr308). After blocking, lysates from tissue culture plates were added and plates were washed. Then, a solution containing the detection antibody (anti-total Akt conjugated with an electrochemiluminescent compound-MSD Sulfo-tag label) was added. The signals were detected using an MSD SECTOR Imager 6000 and are proportional to the phospho-Akt titres.
(§5) Data were processed. The percentage of inhibition was plotted against the log concentration of test compounds, and the sigmoidal log concentration-effect curve of best fit was calculated by nonlinear regression analysis. From these concentration-response curves, the IC50 values were calculated. Five concentrations were used for curve fitting.

MTOR_h = biological target: T1, MTOR_h (Homo sapiens, UniProt P42345); test: Enzyme binding assay (KINOMEscan), MTOR; details: DiscoveRx
T1 construct: purchased DiscoveRx Corporation
Procedure: (§6) Enzyme Binding Assays (KINOMEscan®)
(§7) Kinase enzyme binding affinities of compounds disclosed herein were determined using the KINOMEscan technology performed by DiscoveRx Corporation, San Diego, Calif., USA (www.kinomescan.com). Table A reports the obtained Kd values (nM), with the Kd being the inhibitor binding constant: […]

[2] = tested on: phosphorylation of Akt at Ser473 in PC-3 cells; test: Cellular assay: phospho-Akt (Ser473) MSD ELISA in PC-3 cells; format: cell-based; details: 60 min incubation with compound, read-out: IC50 pAkt_S473
Procedure: as §1, §2, §3, §4, §5

PIK3Cδ_h = biological target: T2, PIK3Cδ_h (Homo sapiens, UniProt O00329); test: Enzyme binding assay (KINOMEscan), PIK3Cδ; details: DiscoveRx
T2 construct: purchased DiscoveRx Corporation
T2 sequence (O00329 1-1044): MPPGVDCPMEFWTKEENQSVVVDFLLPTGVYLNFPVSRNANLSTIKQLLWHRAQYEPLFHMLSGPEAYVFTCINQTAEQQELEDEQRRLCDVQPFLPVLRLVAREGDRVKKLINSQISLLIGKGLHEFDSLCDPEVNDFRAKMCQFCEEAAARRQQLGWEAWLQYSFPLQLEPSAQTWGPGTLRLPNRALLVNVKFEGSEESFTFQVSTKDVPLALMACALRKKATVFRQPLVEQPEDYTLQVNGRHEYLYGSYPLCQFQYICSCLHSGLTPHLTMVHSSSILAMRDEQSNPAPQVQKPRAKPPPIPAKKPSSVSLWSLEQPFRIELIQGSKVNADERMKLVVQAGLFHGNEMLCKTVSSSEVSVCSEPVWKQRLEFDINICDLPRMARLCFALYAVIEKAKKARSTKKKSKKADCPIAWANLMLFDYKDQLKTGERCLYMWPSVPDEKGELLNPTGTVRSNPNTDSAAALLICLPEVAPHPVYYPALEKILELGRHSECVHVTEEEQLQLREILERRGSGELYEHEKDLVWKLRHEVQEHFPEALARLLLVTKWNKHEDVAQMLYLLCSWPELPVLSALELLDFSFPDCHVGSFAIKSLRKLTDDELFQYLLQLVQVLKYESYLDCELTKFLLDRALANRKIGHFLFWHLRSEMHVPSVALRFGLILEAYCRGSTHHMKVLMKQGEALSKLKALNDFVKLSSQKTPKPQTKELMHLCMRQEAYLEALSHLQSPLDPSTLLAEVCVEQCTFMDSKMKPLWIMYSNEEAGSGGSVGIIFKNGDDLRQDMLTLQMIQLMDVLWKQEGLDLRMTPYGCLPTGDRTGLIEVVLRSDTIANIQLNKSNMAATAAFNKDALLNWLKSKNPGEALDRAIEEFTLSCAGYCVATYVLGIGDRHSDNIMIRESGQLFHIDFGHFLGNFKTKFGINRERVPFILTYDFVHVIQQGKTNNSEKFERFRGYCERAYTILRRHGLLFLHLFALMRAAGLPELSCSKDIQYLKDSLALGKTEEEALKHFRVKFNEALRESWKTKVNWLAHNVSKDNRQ
Procedure: as §6, §7

PIK3Cβ_h = biological target: T3, PIK3Cβ_h (Homo sapiens, UniProt P42338); test: Enzyme binding assay (KINOMEscan), PIK3Cβ; details: DiscoveRx
T3 construct: purchased DiscoveRx Corporation
Procedure: as §6, §7

PIK3Cγ_h = biological target: T4, PIK3Cγ_h (Homo sapiens, UniProt P48736); test: Enzyme binding assay (KINOMEscan), PIK3Cγ; details: DiscoveRx
T4 construct: purchased DiscoveRx Corporation
Procedure: as §6, §7

PIK3Cα_h = biological target: T5, PIK3Cα_h (Homo sapiens, UniProt P42336); test: Enzyme binding assay (KINOMEscan), PIK3Cα; details: DiscoveRx
T5 construct: purchased DiscoveRx Corporation
Procedure: as §6, §7

T5 sequence (P42336 whole entry): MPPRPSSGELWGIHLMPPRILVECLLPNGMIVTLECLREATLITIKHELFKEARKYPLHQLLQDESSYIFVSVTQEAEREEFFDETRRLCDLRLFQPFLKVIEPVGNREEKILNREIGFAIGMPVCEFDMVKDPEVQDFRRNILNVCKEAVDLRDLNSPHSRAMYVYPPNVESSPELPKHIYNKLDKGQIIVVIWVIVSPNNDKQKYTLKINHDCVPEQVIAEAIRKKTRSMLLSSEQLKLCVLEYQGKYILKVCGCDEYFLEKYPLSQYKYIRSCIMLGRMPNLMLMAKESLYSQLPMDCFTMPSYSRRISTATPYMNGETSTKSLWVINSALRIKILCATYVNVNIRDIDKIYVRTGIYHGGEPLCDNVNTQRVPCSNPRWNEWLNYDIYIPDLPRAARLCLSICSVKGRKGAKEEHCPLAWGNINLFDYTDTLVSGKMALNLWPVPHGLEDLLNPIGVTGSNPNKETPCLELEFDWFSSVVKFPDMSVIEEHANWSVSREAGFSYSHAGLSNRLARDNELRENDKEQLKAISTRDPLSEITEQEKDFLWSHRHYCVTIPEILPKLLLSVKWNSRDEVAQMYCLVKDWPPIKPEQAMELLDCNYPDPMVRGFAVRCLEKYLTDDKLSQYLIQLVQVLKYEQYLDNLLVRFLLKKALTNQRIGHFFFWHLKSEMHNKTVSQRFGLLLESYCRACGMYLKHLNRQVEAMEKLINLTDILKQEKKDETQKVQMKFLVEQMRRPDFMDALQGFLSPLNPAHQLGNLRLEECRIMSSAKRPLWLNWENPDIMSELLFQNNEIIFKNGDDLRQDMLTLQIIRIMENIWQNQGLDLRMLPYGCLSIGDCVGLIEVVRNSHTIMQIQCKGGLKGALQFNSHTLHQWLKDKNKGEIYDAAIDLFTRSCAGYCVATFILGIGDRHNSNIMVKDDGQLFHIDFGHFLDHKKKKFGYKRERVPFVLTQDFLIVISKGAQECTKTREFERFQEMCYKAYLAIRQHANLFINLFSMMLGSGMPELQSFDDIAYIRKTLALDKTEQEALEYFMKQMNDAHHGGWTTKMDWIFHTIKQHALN
T3 sequence (P42338 whole entry): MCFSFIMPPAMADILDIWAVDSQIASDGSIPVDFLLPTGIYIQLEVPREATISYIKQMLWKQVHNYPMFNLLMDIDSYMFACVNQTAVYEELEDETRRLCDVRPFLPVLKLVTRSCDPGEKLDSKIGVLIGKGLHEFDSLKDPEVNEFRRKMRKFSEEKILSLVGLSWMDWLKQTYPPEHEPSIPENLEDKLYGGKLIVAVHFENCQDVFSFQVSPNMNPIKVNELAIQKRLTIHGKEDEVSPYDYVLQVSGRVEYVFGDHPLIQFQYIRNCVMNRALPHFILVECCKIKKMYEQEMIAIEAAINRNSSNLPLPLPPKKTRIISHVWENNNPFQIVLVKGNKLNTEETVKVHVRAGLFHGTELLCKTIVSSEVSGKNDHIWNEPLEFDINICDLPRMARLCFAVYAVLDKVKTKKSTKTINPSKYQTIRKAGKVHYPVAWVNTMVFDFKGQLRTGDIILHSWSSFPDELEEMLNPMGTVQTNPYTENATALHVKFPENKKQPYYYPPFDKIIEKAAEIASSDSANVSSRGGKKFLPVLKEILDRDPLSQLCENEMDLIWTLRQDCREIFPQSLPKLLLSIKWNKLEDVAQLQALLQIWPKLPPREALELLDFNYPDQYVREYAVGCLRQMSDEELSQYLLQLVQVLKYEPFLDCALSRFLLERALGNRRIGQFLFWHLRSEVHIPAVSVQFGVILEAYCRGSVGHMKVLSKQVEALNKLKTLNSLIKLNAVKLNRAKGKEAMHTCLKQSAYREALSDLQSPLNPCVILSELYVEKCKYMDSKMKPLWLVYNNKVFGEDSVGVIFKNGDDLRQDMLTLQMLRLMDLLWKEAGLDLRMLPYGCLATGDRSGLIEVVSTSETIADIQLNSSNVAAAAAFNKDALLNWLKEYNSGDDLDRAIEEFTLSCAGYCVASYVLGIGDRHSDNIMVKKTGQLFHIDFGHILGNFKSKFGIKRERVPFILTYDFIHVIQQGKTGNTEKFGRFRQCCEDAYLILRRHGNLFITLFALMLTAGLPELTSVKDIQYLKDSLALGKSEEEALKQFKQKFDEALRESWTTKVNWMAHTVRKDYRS
T4 sequence (P48736 whole entry): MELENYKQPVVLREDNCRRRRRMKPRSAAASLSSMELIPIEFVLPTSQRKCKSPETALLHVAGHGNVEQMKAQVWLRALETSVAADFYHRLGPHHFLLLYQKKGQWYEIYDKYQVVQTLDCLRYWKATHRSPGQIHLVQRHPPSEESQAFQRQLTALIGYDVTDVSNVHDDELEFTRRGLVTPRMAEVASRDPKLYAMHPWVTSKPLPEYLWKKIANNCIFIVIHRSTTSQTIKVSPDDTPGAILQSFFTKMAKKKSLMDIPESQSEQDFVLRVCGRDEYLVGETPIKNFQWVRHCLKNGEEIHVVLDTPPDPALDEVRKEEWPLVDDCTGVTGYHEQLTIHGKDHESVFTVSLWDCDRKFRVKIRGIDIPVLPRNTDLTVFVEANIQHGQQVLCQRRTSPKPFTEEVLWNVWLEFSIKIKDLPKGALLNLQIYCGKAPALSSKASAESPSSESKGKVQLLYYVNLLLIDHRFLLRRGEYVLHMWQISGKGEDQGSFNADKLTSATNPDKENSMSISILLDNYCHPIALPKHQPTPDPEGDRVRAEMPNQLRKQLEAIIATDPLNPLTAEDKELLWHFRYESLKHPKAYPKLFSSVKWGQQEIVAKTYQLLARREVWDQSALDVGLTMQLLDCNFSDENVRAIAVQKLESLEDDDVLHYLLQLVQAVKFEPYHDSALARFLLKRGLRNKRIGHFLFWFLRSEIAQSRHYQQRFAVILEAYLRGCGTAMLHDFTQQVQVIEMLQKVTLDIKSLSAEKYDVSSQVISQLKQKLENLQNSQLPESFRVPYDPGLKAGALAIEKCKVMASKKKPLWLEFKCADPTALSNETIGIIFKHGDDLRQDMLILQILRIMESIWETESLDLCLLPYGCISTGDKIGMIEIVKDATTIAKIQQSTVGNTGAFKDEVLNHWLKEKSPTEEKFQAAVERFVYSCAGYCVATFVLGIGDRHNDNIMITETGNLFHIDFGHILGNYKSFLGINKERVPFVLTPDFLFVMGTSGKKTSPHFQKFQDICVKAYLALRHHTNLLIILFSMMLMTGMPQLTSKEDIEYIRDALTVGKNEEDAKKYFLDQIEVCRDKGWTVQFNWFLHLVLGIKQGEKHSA

IC50 [1] [nM]	Kd (MTOR_h) [nM]	melting point [°C]	IC50 [2] [nM]	Kd (PIK3Cδ_h) [nM]	Kd (PIK3Cβ_h) [nM]	Kd (PIK3Cγ_h) [nM]	Kd (PIK3Cα_h) [nM]	IC50 ([1]; Homo sapiens, PC-3, 1 h) [nM]	IC50 ([2]; Homo sapiens, PC-3, 1 h) [nM]	Compound
59	> 30200	177	11	1410	8	20900	11500	–	–	CN(C)CCNC(=O)c1cc(C2CCCN2c2ccnc(F)c2)c2nc(N3CCOCC3)cnc2c1 (single isomer, unassigned) [Compound 38]
–	> 30200	80	–	1410	42	> 30200	16600	> 513	> 513	CN(C)C(=O)c1cc(C2CCCN2c2cc(Cl)ncn2)c2nc(N3CCOCC3)cnc2c1 (stereo not shown) [Compound 1]
–	> 30200	138	–	5890	162	20900	> 30200	> 513	> 513	Cc1cc(N2CCCC2c2cc(C(=O)N(C)C)cc3ncc(N4CCOCC4)nc23)cc(C)n1 (stereo not shown) [Compound 2]
–	> 30200	186	–	25100	2040	> 30200	> 30200	> 513	> 513	Cc1cc(N2CCCC2c2cc(C(=O)N(C)C)cc3ncc(N4CCOCC4)nc23)nc(C)n1 (stereo not shown) [Compound 3]
–	> 30200	110	–	22400	1550	> 30200	28800	> 513	> 513	Cc1nccc(N2CCCC2c2cc(C(=O)N(C)C)cc3ncc(N4CCOCC4)nc23)n1 (stereo not shown) [Compound 4]
–	> 30200	100	–	832	22	26900	5370	417	> 513	Cc1cc(C)nc(N2CCCC2c2cc(C(=O)N(C)C)cc3ncc(N4CCOCC4)nc23)n1 (stereo not shown) [Compound 5]
–	> 30200	80	–	8320	589	> 30200	> 30200	> 513	> 513	COc1ncc(NC(C)c2cc(C(=O)N(C)C)cc3ncc(N4CCOCC4)nc23)cc1C(F)(F)F (stereo not shown) [Compound 24]
–	> 30200	225	–	1320	21	28800	16200	468	> 513	CC(Nc1cncc(Cl)n1)c1cc(C(=O)N(C)C)cc2ncc(N3CCOCC3)nc12 (stereo not shown) [Compound 25]
–	> 30200	80	–	661	15	> 30200	5010	191	> 513	COc1ncc(F)cc1NC(C)c1cc(C(=O)N(C)C)cc2ncc(N3CCOCC3)nc12 (stereo not shown) [Compound 26]
–	30900	244	–	15500	1260	25700	16200	> 513	> 513	Cc1ccncc1CNc1cc(C(=O)NCCO)cc2ncc(N3CCOCC3)nc12 [Compound 28]
–	> 30200	206	–	295	0.1	3390	1700	4	5	CN(C)CCNC(=O)c1cc(C2CCCN2c2cncc(F)c2)c2nc(N3CCOCC3)cnc2c1 (stereo not shown) [Compound 36]
–	11500	191	–	166	3	1000	447	40	~2	O=C(NCCO)c1cc(C2CCCN2c2cncc(F)c2)c2nc(N3CCOCC3)cnc2c1 (stereo not shown) [Compound 43]
–	31600	130	–	240	2	4070	575	30	49	O=C(c1cc(C2CCCN2c2cncc(F)c2)c2nc(N3CCOCC3)cnc2c1)N1CC2(C1)CS(=O)(=O)C2 (stereo not shown) [Compound 44]
–	> 30200	80	–	372	2	18200	10000	> 513	> 513	CNCCNC(=O)c1cc(C2CCCN2c2ccnc(Cl)c2)c2nc(N3CCOCC3)cnc2c1 (stereo not shown) [Compound 48]
